# System: patients with prior myocardial infarction (CARE study)
# Assay: CARE: association of SNPs with pravastatin treatment in RMI prevention (genotypic RR in placebo and statin strata; Table 10)
# Assay type: in vivo, human
# Source text: In order to identify genetic markers associated with acute coronary events (e.g. MI, stroke, unstable angina, congestive heart failure, etc.) or response to statin treatment for the prevention of coronary events, samples from the Cholesterol and Recurrent Events (CARE) study (a randomized multicentral double-blinded trial on secondary prevention of acute coronary events with pravastatin) (Sacks et al., 1991, Am. J. Cardiol. 68: 1436-1446) were genotyped. A well-documented myocardial infarction (MI) was one of the enrollment criteria for entry into the CARE study. Patients were enrolled in the CARE trial from 80 participating study centers. […] Patients were randomized to receive either 40 mg of pravastatin once daily or a matching placebo. The primary endpoint of the trial was death from coronary heart disease and the median duration of follow-up was 5.0 years (range, 4.0 to 6.2 years). […] Secondary endpoints of other related cardiovascular or metabolic disease events, and changes in clinical variables were also recorded in pravastatin-treated and placebo groups. All individuals included in the study had signed a written informed consent form and the study protocol was approved by the respective Institutional Review Boards (IRBs).
# For genotyping SNPs in CARE patient samples, DNA was extracted from blood samples using conventional DNA extraction methods such as the QIA-amp kit from Qiagen. Genotypes were obtained on an ABI PRISM® 7900HT Sequence Detection PCR system (Applied Biosystems, Foster City, Calif.) by kinetic allele-specific PCR, similar to the method described by Germer et al. (Germer S., Holland M. J., Higuchi R. 2000, Genome Res. 10: 258-266).
# For statistical analysis of association of SNPs with pravastatin treatment in RMI prevention (Table 10), effect sizes were estimated through genotypic RR, including 95% CIs. Homogeneity of Cochran-Mantel-Haenszel odds ratios was tested across pravastatin and placebo strata using the Wald test. […] (this adjustment supports independence of the SNP association from conventional risk factors). This table also provides the frequency data for the at risk allele in the columns labeled “Case Y PRIMER ALLELE Nucleotide Frequency” and “Control Y PRIMER ALLELE Nucleotide Frequency”. Allele frequencies for the cases and controls ≤0.49 indicate that the at-risk allele is the minor allele. Allele frequencies ≥0.50 indicate that the at-risk allele is the major allele. An example of a SNP associated with increased risk for an adverse cardiovascular event in the placebo group using a dominant genotypic test is hCV25644901. […] However, this same SNP was protective in the statin treated group with a RR of 0.58. An example of a SNP associated with an adverse cardiovascular event in the placebo group using the allelic association test is hCV16044337 with a RR of 1.87 for the homozygous AA genotype. This same genotype was protective in the statin treated group with a RR of 0.56.
smiles,measurement,setting,value
CC[C@H](C)C(=O)O[C@H]1C[C@H](O)C=C2C=C[C@H](C)[C@H](CC[C@@H](O)C[C@@H](O)CC(=O)O)[C@H]21 [pravastatin],RR (relative risk for RMI),"HSPG2 hCV16172339, Het(TC) stratum, Statin vs Placebo, covars none",0.37
same,RR (relative risk for RMI),"HSPG2 hCV16172339, Maj Hom (CC) stratum, Statin vs Placebo, covars none",0.80
same,RR (relative risk for RMI),"HSPG2 hCV16172339, Statin stratum, het (TC)vs. ref(CC), covars none",0.66
same,RR (relative risk for RMI),"IL4R hCV2351160, Het(GA) stratum, Statin vs Placebo, covars HX_SMOKE",0.57
same,RR (relative risk for RMI),"IL4R hCV2351160, Maj Hom(AA) stratum, Statin vs Placebo, covars HX_SMOKE",0.85
same,RR (relative risk for RMI),"IL4R hCV2351160, Min Hom(GG) stratum, Statin vs Placebo, covars HX_SMOKE",0.36
same,RR (relative risk for RMI),"IL4R hCV2351160, Statin stratum, het(GA) vs. ref(AA), covars HX_SMOKE",0.76
same,RR (relative risk for RMI),"IL4R hCV2351160, Statin stratum, hom (GG)vs. ref(AA), covars HX_SMOKE",0.61
same,RR (relative risk for RMI),"IL4R hCV2769554, Het(GA) stratum, Statin vs Placebo",0.64
same,RR (relative risk for RMI),"IL4R hCV2769554, Maj Hom(AA) stratum, Statin vs Placebo",0.59
same,RR (relative risk for RMI),"IL4R hCV2769554, Min Hom(GG) stratum, Statin vs Placebo",1.56
same,RR (relative risk for RMI),"IL4R hCV2769554, Statin stratum, het(GA) vs. ref(AA)",1.17
same,RR (relative risk for RMI),"IL4R hCV2769554, Statin stratum, hom(GG) vs. ref(AA)",1.26
same,RR (relative risk for RMI),"ITGA9 hCV3215409, Het(GA) stratum, Statin vs Placebo",0.86
same,RR (relative risk for RMI),"ITGA9 hCV3215409, Maj Hom(AA) stratum, Statin vs Placebo",0.84
same,RR (relative risk for RMI),"ITGA9 hCV3215409, Min Hom(GG) stratum, Statin vs Placebo",0.30
same,RR (relative risk for RMI),"ITGA9 hCV3215409, Statin stratum, het (GA)vs. ref(AA)",1.22
same,RR (relative risk for RMI),"ITGA9 hCV3215409, Statin stratum, hom(GG) vs. ref(AA)",0.54
same,RR (relative risk for RMI),"LAMA2 hCV16047108, Het (GA) stratum, Statin vs Placebo",1.31
same,RR (relative risk for RMI),"LAMA2 hCV16047108, Maj Hom (AA) stratum, Statin vs Placebo",0.63
same,RR (relative risk for RMI),"LAMA2 hCV16047108, Statin stratum, het(GA) vs. ref (AA)",2.02
same,RR (relative risk for RMI),"LAMA2 hCV16047108, Statin stratum, hom(GG) vs. ref (AA)",4.97
same,RR (relative risk for RMI),"LPA hCV11225994, Het(GA) stratum, Statin vs Placebo",1.02
same,RR (relative risk for RMI),"LPA hCV11225994, Maj Hom(GG) stratum, Statin vs Placebo",0.62
same,RR (relative risk for RMI),"LPA hCV11225994, Min Hom(AA) stratum, Statin vs Placebo",1.33
same,RR (relative risk for RMI),"LPA hCV11225994, Statin stratum, het(GA) vs. ref (GG)",1.06
same,RR (relative risk for RMI),"LPA hCV11225994, Statin stratum, hom (AA)vs. ref(GG)",2.34
same,RR (relative risk for RMI),"MACF1 hCV3112686, Het(GC) stratum, Statin vs Placebo, covars HX_SMOKE",0.71
same,RR (relative risk for RMI),"MACF1 hCV3112686, Maj Hom(CC) stratum, Statin vs Placebo, covars HX_SMOKE",0.96
same,RR (relative risk for RMI),"MACF1 hCV3112686, Min Hom(GG) stratum, Statin vs Placebo, covars HX_SMOKE",0.42
same,RR (relative risk for RMI),"MACF1 hCV3112686, Statin stratum, het(GC) vs. ref(CC), covars HX_SMOKE",0.98
same,RR (relative risk for RMI),"MACF1 hCV3112686, Statin stratum, hom(GG) vs. ref(CC), covars HX_SMOKE",0.60
same,RR (relative risk for RMI),"NPC1 hCV25472673, Het(TC) stratum, Statin vs Placebo, covars none",0.61
same,RR (relative risk for RMI),"NPC1 hCV25472673, Maj Hom(TT) stratum, Statin vs Placebo, covars none",1.08
same,RR (relative risk for RMI),"NPC1 hCV25472673, Statin stratum, het(TC) vs. ref(TT), covars none",0.76
same,RR (relative risk for RMI),"NPC1 hCV25472673, Statin stratum, hom(CC) vs. ref(TT), covars none",0.87
same,RR (relative risk for RMI),"PLAB hCV7494810, Het(GC) stratum, Statin vs Placebo, covars HX_SMOKE",0.46
same,RR (relative risk for RMI),"PLAB hCV7494810, Maj Hom(CC) stratum, Statin vs Placebo, covars HX_SMOKE",0.94
same,RR (relative risk for RMI),"PLAB hCV7494810, Min Hom(GG) stratum, Statin vs Placebo, covars HX_SMOKE",0.75
same,RR (relative risk for RMI),"PLAB hCV7494810, Statin stratum, het(GC) vs. ref(CC), covars HX_SMOKE",0.67
same,RR (relative risk for RMI),"PLAB hCV7494810, Statin stratum, hom(GG) vs. ref(CC), covars HX_SMOKE",0.68
same,RR (relative risk for RMI),"PPOX hCV25922816, Het(GA) stratum, Statin vs Placebo",0.42
same,RR (relative risk for RMI),"PPOX hCV25922816, Maj Hom(GG) stratum, Statin vs Placebo",0.82
same,RR (relative risk for RMI),"PPOX hCV25922816, Statin stratum, het(GA) vs. ref(GG)",0.64
same,RR (relative risk for RMI),"PTPRJ hCV8895373, Het(GA) stratum, Statin vs Placebo",1.07
same,RR (relative risk for RMI),"PTPRJ hCV8895373, Maj Hom(GG) stratum, Statin vs Placebo",0.60
same,RR (relative risk for RMI),"PTPRJ hCV8895373, Min Hom(AA) stratum, Statin vs Placebo",1.62
same,RR (relative risk for RMI),"PTPRJ hCV8895373, Statin stratum, het(GA) vs. ref (GG)",1.43
same,RR (relative risk for RMI),"PTPRJ hCV8895373, Statin stratum, hom(AA)vs. ref(GG)",1.14
same,RR of adverse cardiovascular event in the statin treated group,"hCV16044337, homozygous AA genotype",0.56
same,RR of adverse cardiovascular event in the statin treated group,"hCV25644901, dominant genotype (GG or GA)",0.58
